Laboratory results as given in patent publication US20210261971A1, “COMPOSITIONS AND METHODS FOR AMELIORATING TISSUE INJURY, ENHANCING LIVER REGENERATION AND STEM CELL THERAPIES” (UNIVERSITY OF SOUTHERN CALIFORNIA, priority 2018, published 2021).
“Also recorded” adds a separate entry of the source. Where two headings read alike, the source gives them in different places.

What was measured:
Assay type in all cases: in vivo, rat
Lewis rats [1] = experiment: Liver histology for toxicity of MMP inhibitors given to controls
Lewis rats [2] = experiment: Liver regeneration after two-thirds partial hepatectomy (PH): liver-to-body weight ratio, Ki-67 proliferation; conditions: for hepatocyte proliferation (ki-67) compared to respective control: day 2 after PH, intraportal infusion
Procedure: Partial (70%) hepatectomy was performed under general anesthesia with ketamine-xylazine (80-90 mg/kg ip). For 70% partial hepatectomy, the median and left lateral lobes were removed. Buprenorphine SR (1 mg/kg) was used postoperatively for analgesia.
Liver-selective MMP-9 inhibition: Knockdown of MMP-9 was achieved by injection of one of two MMP-9 antisense oligonucleotides that were a kind gift from Ionis Pharmaceuticals (Ions No 283953 and 283973, Carlsbad, Calif.; 20 mg/kg intraperitoneally twice weekly for 4 weeks.
Systemic MMP inhibition: Doxycycline (Sigma, St. Louis), 15 mg/kg i.g., was given twice daily starting 2 days before the relevant study. Control studies were performed with the same dose of a chemically modified tetracycline, isochlorotetracycline, which is only a weak MMP inhibitor. In other experiments, MMP-2/9 was inhibited by infusing 2-[(4-biphenylsulfonyl)amino]-3-phenyl-propionic acid, 100 μg/kg/h, intraperitoneally with an Alzet mini-osmotic pump (model 2001, Durect Corporation, Cupertino Calif.).
Deparaffinized 5 μm sections of liver were treated with Bond ER-2 antigen retrieval (Leica Biosystems, Buffalo Grove, Ill.) for 20 min. After preblocking for 10 min with Rodent Block R (Cat #RBR962G, Biocare, Pacheco, Calif.), sections were incubated with antibody against Ki-67 for 60 min. Immunohistochemistry was performed by incubating sections with rabbit-on-rodent HRP-Polymer (cat #RMR622G, Biocare) for 30 min. Slides were rinsed in Bond diaminobenzidine (Leica Biosystems) for 10 min. After counterstaining with Bond hematoxylin, slides were dehydrated and covered using a coverslip with resinous mounting medium (Leica Biosystems).
Ki-67 positive cells were determined using photographs taken with a 20×-objective in 15 lobules per rat, n=3. To assess the percentage of proliferating hepatocytes and non-parenchymal cells, slides were coded and the percentage Ki-67 positive cells was determined blindly by X.W. To determine zonation of proliferating cells, each lobule was divided into three even fields and the total number of ki-67 positive cells/field was counted.

[3] = system: BM sprocs (CD133+45+31+ cells); experiment: Recruitment of BM sprocs after PH: number in bone marrow and circulation by immunomagnetic selection and flow cytometry; conditions: for number of circulating CXCR7+ sprocs: 6 hours after PH
Procedure: Sproc isolation. BM and circulating sprocs were isolated by immunomagnetic selection for CD133 using a CD133 Cell Isolation Kit (Miltenyi Biotec, Auburn, Calif.) and separation with an autoMACS Pro (Miltenyi Biotec, Auburn, Calif.), followed by FACS sorting for CD45 and CD31 (FIG. 26, or Supporting Fig S1).
To determine the number of sprocs in the circulation and BM from Lewis rats 6 hours after partial hepatectomy, CD133+ cells were isolated by immunomagnetic selection for CD133 from peripheral blood or BM. Cell suspensions were preblocked with FcR blocking reagent and incubated for 60 minutes with antibodies to rat CD45 and CD31. CD133+45+31+ cells were quantified by flow cytometry. In some experiments cells were also stained with antibody to rat CXCR7, to identify CD133+45+31+CXCR7+ cells in the circulation.
(§1) Flow cytometry. Flow cytometry was performed using a FACSCalibur (BD Biosciences). Isotype control antibodies were used to determine appropriate gates, voltages, and compensation required for multivariate flow cytometry. Cell Quest Pro software was used for analysis

MMP-9 = experiment: Immunoblot of hepatic pro-MMP-9 and bone marrow extracellular fluid MMP-9/pro-MMP-9 after PH; conditions: 6 hours after PH
Procedure: Immunoblotting. Samples from freshly isolated liver were harvested using triple lysis buffer (TLB: 50 mM Tris base, 150 mM NaCl, 3 mM sodium azide, 12 mM sodium deoxycholate, 0.1% SDS, 1% Nonidet-P40) supplemented with 2 mM phenylmethylsulphonyl fluoride (PMSF), 1 mM sodium orthovanadate and 1% protease inhibitors cocktail (Santa Cruz sc-24948). Proteins were purified by centrifugation at 15,000 g at 4° C. for 10 min and quantified using DC™ Protein Assay Kit (BioRad). The samples obtained from bone marrow extracellular fluid were preserved in PBS. For MMP-9 analysis, 100 μg of total protein was used from each sample per lane and resolved on NUPAGE™ NOVEX™ 10% Bis-Tris Protein Gels using MOPS running buffer. Proteins were transferred onto 0.45 μm nitrocellulose membranes via electroblotting using XCell II™ Blot Module (Invitrogen), for 1 h, 30V. For SDF-1 and VEGF analysis, 75 μg of total protein was used from each sample per lane and resolved on NUPAGE™ NOVEX™ 4-12% Bis-Tris Protein Gels using MES running buffer. Proteins were transferred onto 0.2 μm nitrocellulose membranes via electroblotting using Trans-blot SD Semi-Dry Transfer Cell™ (Bio-rad), for 20 min, 25V. Membranes were blocked using NAP-BLOCKER™. […] Membrane digital images were acquired with the Odyssey Infrared Imaging System (LI-COR) and analyzed using the LI-COR IMAGE STUDIO™. […]

BM sprocs = experiment: Hepatic engraftment of GFP+ BM sprocs after PH (% GFP+ LSECs, EGFP bone marrow transplant)
Description: FIG. 7D illustrates the percentage of liver sinusoidal endothelial cells (LSECs) that are bone marrow-derived, i.e. derived from BM sprocs (y-axis labeled % GFP+ LSECs). Hepatic engraftment determined as the percentage of bone marrow-derived LSECs after PH is enhanced by MMP-9 ASO or intraportal MMP inhibitor, whereas systemic inhibition of MMP by doxycycline or intraperitoneal MMP inhibitor reduces hepatic engraftment of BM sprocs. Rats were transplanted with bone marrow from a transgenic EGFP rat to allow tracking of bone marrow cells. Rats were treated with one month of ASO, 2 days of doxycycline, or infusion with the MMP inhibitor followed by partial hepatectomy. On day 2 LSECs were isolated and the percentage of GFP+ LSECs was determined by flow cytometry.
Bone marrow transplantation. BM cells were obtained from one tibia and femur from the donor. Recipients underwent 1,000 cGy total body irradiation and were injected via tail vein with 50 million BM cells. Rats received oxytetracycline (200 mg/ml) diluted 1:1,000 in the drinking water starting two days before irradiation and continuing until one week after irradiation. BM was allowed to engraft for 2 months before use. BM from Lew-Tg(CAG-EGFP)ys Lewis rats was transplanted into wild-type Lewis rats and cells were tracked by GFP expression.
LSEC isolation. LSECs were isolated by collagenase perfusion, iodixanol density gradient centrifugation, and centrifugal elutriation, as previously described (22, 23). Yields averaged 86×10^6 cells per normal rat liver (range 69-95×10^6) with average viability of 94% (range 91-96%). Purity of the cells was 99%, as determined by uptake of formaldehyde-treated serum albumin (kind gift from Bard Smedsrod, University of Tromso, Tromso, Norway), a function specific to LSECs. Cells isolated by this protocol have an appropriate range of fenestrae organized in sieve plates.
as §1

[4] = system: infused allogeneic sprocs; experiment: Model of stem cell therapy: engraftment of infused GFP+ allogeneic sprocs after PH; conditions: 3 months; control group 1.5%
Procedure: FIG. 8 graphically illustrates the percent LSECs as a function of engraftments of infused allogenic sprocs, and examines the concept that impairment of BM release of sprocs will favor engraftment of exogenously infused progenitor cells. […] When the percentage of cells derived from the GFP+ allogeneic progenitors was examined at 3 months, 1.5% were GFP+ in the control group versus 14% in the doxycycline group (data not shown). Method: rats were pre-treated with 2 days of doxycycline, 15 mg/kg intra-gastrically twice daily, followed by partial hepatectomy. 1 million sprocs were isolated from the livers of GFP+ rats and infused by tail vein injection. On day 2 and after 3 months LSECs were isolated and the number of GFP+ cells was determined by flow cytometry. Increased ischemia-reperfusion injury in Non-Alcoholic Fatty Liver Disease (NAFLD) due to impaired sdf-1 signaling to bone marrow sprocs can be attenuated by liver-selective MMP inhibition: Systemic MMP inhibition: Doxycycline (Sigma, St. Louis), 15 mg/kg i.g., was given twice daily starting 2 days before the relevant study. […] Purity of the cells was 99%, as determined by uptake of formaldehyde-treated serum albumin (kind gift from Bard Smedsrod, University of Tromso, Tromso, Norway), a function specific to LSECs. […]

For `O=C(O)[C@@H](Cc1ccccc1)NS(=O)(=O)c1ccc(-c2ccccc2)cc1` [MMP-2/9 inhibitor, (2R)-2-[(4-Biphenylylsulfonyl)amino]-3-phenylpropionic acid], the “hepatotoxicity (histology)” value (Lewis rats [1]; intraportal) was “no evidence of toxicity; also recorded: neither doxycycline nor intraportal MMP-2/9 inhibitor given to controls was hepatotoxic”, the “hepatocyte proliferation (ki-67) compared to respective control” value (Lewis rats [2]) was “enhances” and the “hepatocyte proliferation (ki-67) compared to respective control” value (Lewis rats [2]; listed as MMPi) was “enhanced”. The “number of circulating CXCR7+ sprocs” value ([3]; intraperitoneal) was “reduced”, the “number of circulating CXCR7+ sprocs” value ([3]; intraportal infusion) was “increased” and the “reduction of CXCR7+ sprocs mobilized to the circulation” value ([3]; after PH, intraperitoneal) was 86%. For the same compound, the “increase of CXCR7+ sprocs in the circulation” value ([3]; after PH, intraportal infusion) was 110%, the “increase of hepatic MMP-9 protein expression after PH” value (MMP-9; intraperitoneal) was “abrogated the increase in hepatic MMP-9 expression” and the “increase of hepatic MMP-9 protein expression after PH” value (MMP-9; intraportal) was “abrogated the increase in hepatic MMP-9 expression”. The “hepatic engraftment of BM sprocs (% GFP+ LSECs)” value (BM sprocs; intraperitoneal) was “reduced”, the “reduction of hepatic engraftment of BM sprocs compared to control/PH” value (BM sprocs; intraperitoneal) was 36% and the “hepatic engraftment of BM sprocs (% GFP+ LSECs)” value (BM sprocs; intraperitoneal, listed as MMP inhibitor) was “reduces”. The “hepatic engraftment of BM sprocs (% GFP+ LSECs)” value (BM sprocs; intraportal) was “enhanced” and the “increase of hepatic engraftment of GFP+ BM sprocs compared to control/PH” value (BM sprocs; intraportal) was 45%.
With isochlorotetracycline the “hepatic engraftment of BM sprocs (% GFP+ LSECs)” value (BM sprocs) was “no effect”.
With `C[C@H]1c2cccc(O)c2C(=O)C2=C(O)[C@]3(O)C(=O)C(C(N)=O)=C(O)[C@@H](N(C)C)[C@@H]3[C@@H](O)[C@@H]21` [doxycycline, Doxycycline] the “percentage of GFP+ LSECs derived from infused allogeneic progenitors” value [4] was 14%, the “hepatotoxicity (histology)” value (Lewis rats [1]) was “neither doxycycline nor intraportal MMP-2/9 inhibitor given to controls was hepatotoxic” and the “hepatotoxicity (histology)” value (Lewis rats [1]; listed as coxycycline) was “no evidence of toxicity”. The “reduction of liver-to-body weight ratio compared to its solvent control” value (Lewis rats [2]; day 5 after two-thirds PH, doxycycline for 2 days before PH (systemic)) was 29%, the “reduction of CXCR7+ sprocs mobilized to the circulation” value ([3]; after PH, systemic) was 90% and the “reduction of mobilization of BM sprocs to the circulation” value ([3]; after PH, systemic) was 72%. For the same compound, the “reduction of hepatic engraftment of BM sprocs compared to control/PH” value (BM sprocs; systemic) was 58%.
